“And” between values parts separate entries of the source, which are not always exact repeats. Equal values may be shown once.
Tests used:
Test in all cases: NCI one-dose screen
Assay type in all cases: cell-based, human
SR = details: Leukemia SR, 10 µM single dose
Procedure, shortened: (§1)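 One concentration (10 μM) applied to each line of the full NCI-60 panel; percent growth compared against untreated cells.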

MALME-3M = details: Melanoma MALME-3M, 10 µM single dose
Procedure, shortened: as §1

TK-10 = details: Renal TK-10, 10 µM single dose
Procedure, shortened: as §1

IGROV1 = details: Ovarian IGROV1, 10 µM single dose
Procedure, shortened: as §1

NCI-H322M = details: NSCLC NCI-H322M, 10 µM single dose
Procedure, shortened: as §1

SK-MEL-2 = details: Melanoma SK-MEL-2, 10 µM single dose
Procedure, shortened: (§2)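 In vitro antiproliferative testing: NCI-60 panel, initial single dose 10 μM, inhibition % derived from percent growth of treated versus untreated control cells.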

HT29 = details: Colon HT29, 10 µM single dose
Procedure, shortened: as §1

UO-31 = details: Renal UO-31, 10 µM single dose
Procedure, shortened: (§3)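 Following the standard NCI-60 protocol, compounds were applied once at 10 μM to all 60 cancer lines. Read-out is percent growth versus untreated controls, expressed as inhibition %.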

HOP-62 = details: NSCLC HOP-62, 10 µM single dose
Procedure, shortened: as §2

SNB-75 = details: CNS SNB-75, 10 µM single dose
Procedure, shortened: as §3

SF-268 = details: CNS SF-268, 10 µM single dose
Procedure, shortened: (§4)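 Single dose of 10 μM tested across the full NCI-60 cell panel. Values are percent growth inhibition relative to untreated control cells, following standard NCI methodology.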

SF-539 = details: CNS SF-539, 10 µM single dose
Procedure, shortened: as §4

CAKI-1 = details: Renal CAKI-1, 10 µM single dose
Procedure, shortened: as §1

NCI-H522 = details: NSCLC NCI-H522, 10 µM single dose
Procedure, shortened: as §3

A549/ATCC = details: NSCLC A549/ATCC, 10 µM single dose
Procedure, shortened: as §1

OVCAR-4 = details: Ovarian OVCAR-4, 10 µM single dose
Procedure, shortened: as §1

HS 578T = details: Breast HS 578T, 10 µM single dose
Procedure, shortened: as §1

MDA-MB-435 = details: Melanoma MDA-MB-435, 10 µM single dose
Procedure, shortened: as §1

RXF 393 = details: Renal RXF 393, 10 µM single dose
Procedure, shortened: as §1

COLO 205 = details: Colon COLO 205, 10 µM single dose
Procedure, shortened: as §1

HCT-116 = details: Colon HCT-116, 10 µM single dose
Procedure, shortened: as §1

OVCAR-5 = details: Ovarian OVCAR-5, 10 µM single dose
Procedure, shortened: as §1

NCI-H226 = details: NSCLC NCI-H226, 10 µM single dose
Procedure, shortened: as §3

LOX IMVI = details: Melanoma LOX IMVI, 10 µM single dose
Procedure, shortened: as §1

DU-145 = details: Prostate DU-145, 10 µM single dose
Procedure, shortened: as §1

SW-620 = details: Colon SW-620, 10 µM single dose
Procedure, shortened: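 Compounds were tested at a single dose of 10 μM across the full NCI-60 cell line panel. Growth was expressed as percent growth relative to untreated control cells, reported as percent inhibition.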

M14 = details: Melanoma M14, 10 µM single dose
Procedure, shortened: as §1

HL-60(TB) = details: Leukemia HL-60(TB), 10 µM single dose
Procedure, shortened: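 At 10 μM, a single concentration, compounds were evaluated for antiproliferative effect in the NCI 60-line screen, with growth expressed relative to untreated control cells.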

SK-MEL-5 = details: Melanoma SK-MEL-5, 10 µM single dose
Procedure, shortened: as §1

SK-OV-3 = details: Ovarian SK-OV-3, 10 µM single dose
Procedure, shortened: as §1

HCC-2998 = details: Colon HCC-2998, 10 µM single dose
Procedure, shortened: as §1

786-0 = details: Renal 786-0, 10 µM single dose
Procedure, shortened: as §1

SNB-19 = details: CNS SNB-19, 10 µM single dose
Procedure, shortened: as §2

SN12C = details: Renal SN12C, 10 µM single dose
Procedure, shortened: as §1

EKVX = details: NSCLC EKVX, 10 µM single dose
Procedure, shortened: as §3

Cc1c(C(=O)NO)sc2ncnc(Nc3ccc(NC(=S)Nc4ccccc4)cc3)c12 [Compound 7d, 1–(4-(6-(hydroxycarbamoyl)-5-methylthieno[2,3-d]pyrimidin-4-ylamino)phenyl)-3-phenylthiourea]
Growth Percent (SR): 110.3% and 110.34% | Growth Percent (MALME-3M): 99.4% and 99.48% | Growth Percent (TK-10): 106.3% and 106.37% | Growth Percent (IGROV1): 111.5% and 111.55% | Growth Percent (NCI-H322M): 107.3% and 107.32% | Growth Percent (SK-MEL-2): 104.1% and 104.16% | Growth Percent (HT29): 102.7% and 102.73% | Growth Percent (UO-31): 85.0% and 85.06% | Growth Percent (HOP-62): 100.8% and 100.85% | Growth Percent (SNB-75): 87.9% and 87.95% | Growth Percent (SF-268): 98.1% and 98.17% | Growth Percent (SF-539): 100.3% and 100.31% | Growth Percent (CAKI-1): 96.5% and 96.56% | Growth Percent (NCI-H522): 92.1% and 92.13% | Growth Percent (A549/ATCC): 101.3% and 101.33% | Growth Percent (OVCAR-4): 104.6% and 104.62% | Growth Percent (HS 578T): 104.5% and 104.57% | Growth Percent (MDA-MB-435): 101.3% and 101.34% | Growth Percent (RXF 393): 103.7% and 103.72% | Growth Percent (COLO 205): 112.9% and 112.97% | Growth Percent (HCT-116): 105.2% and 105.28% | Growth Percent (OVCAR-5): 102.8% | Growth Percent (NCI-H226): 103.8% and 103.88% | Growth Percent (LOX IMVI): 93.7% and 93.76% | Growth Percent (DU-145): 106.96% | Growth Percent (SW-620): 104.8% and 104.86% | Growth Percent (M14): 104.3% | Growth Percent (HL-60(TB)): 102.7% and 102.72% | Growth Percent (SK-MEL-5): 101.2% and 101.24% | Growth Percent (SK-OV-3): 120.7% and 120.74% | Growth Percent (HCC-2998): 99.8% and 99.86% | Growth Percent (786-0): 99.1% and 99.11% | Growth Percent (SNB-19): 96.4% and 96.45% | Growth Percent (SN12C): 100.8% and 100.86% | Growth Percent (EKVX): 93.6% and 93.61%

Cc1c(C(=O)NO)sc2ncnc(Nc3ccc(F)c(Cl)c3)c12 [Compound 15d, 4–(3-chloro-4-fluorophenylamino)-N-hydroxy-5-methylthieno[2,3-d]pyrimidine-6-carboxamide]
Growth Percent (SR): 101.4% and 101.45% | Growth Percent (MALME-3M): 116.1% and 116.15% | Growth Percent (TK-10): 118.5% and 118.53% | Growth Percent (IGROV1): 103.9% and 103.95% | Growth Percent (NCI-H322M): 107.6% and 107.66% | Growth Percent (SK-MEL-2): 100.9% | Growth Percent (HT29): 102.5% and 102.54% | Growth Percent (UO-31): 77.0% and 77.07% | Growth Percent (HOP-62): 99.3% | Growth Percent (SNB-75): 99.2% | Growth Percent (SF-268): 96.5% | Growth Percent (SF-539): 98.5% and 98.57% | Growth Percent (CAKI-1): 90.4% and 90.42% | Growth Percent (NCI-H522): 88.1% and 88.16% | Growth Percent (A549/ATCC): 100.7% and 100.72% | Growth Percent (OVCAR-4): 102.2% and 102.21% | Growth Percent (HS 578T): 102.4% and 102.42% | Growth Percent (MDA-MB-435): 101.0% and 101.03% | Growth Percent (RXF 393): 100.3% and 100.37% | Growth Percent (COLO 205): 112.3% and 112.34% | Growth Percent (HCT-116): 106.8% | Growth Percent (OVCAR-5): 101.3% and 101.35% | Growth Percent (NCI-H226): 103.2% and 103.24% | Growth Percent (LOX IMVI): 101.3% and 101.32% | Growth Percent (DU-145): 101.9% and 101.96% | Growth Percent (SW-620): 108.2% and 108.22% | Growth Percent (M14): 110.2% and 110.24% | Growth Percent (HL-60(TB)): 101.9% and 101.99% | Growth Percent (SK-MEL-5): 100.5% and 100.59% | Growth Percent (SK-OV-3): 114.4% and 114.45% | Growth Percent (HCC-2998): 102.4% and 102.42% | Growth Percent (786-0): 94.4% and 94.41% | Growth Percent (SNB-19): 91.8% | Growth Percent (SN12C): 100.1% and 100.14% | Growth Percent (EKVX): 88.0% and 88.08%
